Laboratory results taken from patent US6610676B1, “Nitrate esters of corticoid compounds and pharmaceutical applications thereof” (Nicox S.A., priority 1996, dated 2003).
Marks after values point to notes of the source that are not given here.

Columns and labels:
[1] = system: male rats of Lewis strain; assay: Antiarthritic activity, adjuvant arthritis induced by Mycobacterium butyricum; assay type: in vivo; settings: day 21, inhibition of arthritis score vs vehicle group
Male Sprague-Dawley rats = assay: Gastric tolerability (safety); assay type: in vivo; settings: 24 h, lesion scale 0 = absent to 4 = severe and numerous ulcers
Description: Male Sprague-Dawley rats fasted for 24 hours were treated with 5 to 10 mg/kg of intraperitoneal hydrocortisone or HCN.
Twenty-four hours later the animals were sacrified, the stomach was removed and tissue was grossly examined for the presence of lesions as described by Del Soldato et al.: “The influence of fasting and cimetidine on the relationship between ulcerogenic and anti-inflammatory properties of […]”, Br.J.Pharmacol. 67, 33-37, 1979. The degree of severity of the disease was evaluated according to common methods and expressed as arbitrary values.

nitroxysynthetase = assay: LPS-induced nitroxysynthetase activity in rat neutrophils and stomach; assay type: in vivo, rats; settings: 10 mg/kg i.p., LPS 5 mg/kg i.v., 4 h; compared to vehicle group (vehicle = 100)
[2] = system: parietal bone from rat foetus; assay: Bone toxicity, bone tissue grown in vitro; assay type: cell-based; settings: 10 nmol (table), 96 h incubation, compared to initial value
Description: Bone tissues (parietal bone from rat foetus) grown in vitro according to the method described by Doherty et al. (“The effect of glucocorticoids on osteoblast function. The effect of corticosterone on osteoblast, expression of beta-I integrins”, Journal of Bone and Joint Surgery, Series A77/3, 396-404, 1995) was used. […]
Ninety six hours later calcium content and bone dry weight were measured.

[3] = system: conscious Long Evans rats; assay: Cardiovascular parameters in conscious rats; assay type: in vivo; settings: 10 mg/kg s.c., 4 h after treatment; for BLOOD PRESSURE: compared to vehicle group (101 ± 2 mm Hg); for HEART RATE (%): compared to vehicle group (324 ± 7 beats per minute)
Description: The effect of the test products on some cardiovascular parameters was studied in conscious Long Evans rats (350 to 450 g) which were appropriately monitored, as described by Gardiner et al.: “Influence of dexamethasone on the regional haemodynamic responses to lipopolysaccharide in conscious rats: effect of the non-selective endothelin antagonist: SB 209670”, Br.J. Pharmacology 117, 49P, 1996. The animals were treated with the vehicle (physiologic saline solution, 0,9% sodium chloride, s.c.) subcutaneous hydrocortisone or HCN (10 mg/kg). Heart rate and blood pressure were recorded 4 hours after treatment.

Male Wistar rats = assay: Angiostatic activity, rat sponge model, 133Xe clearance; assay type: in vivo; settings: for SPLEEN weight / THYMUS weight: 10 mg/kg s.c. day 1 to 13, day 14; for 133Xe clearance (%): 10 mg/kg s.c. day 1 to 13, measured at day 14, clearance for 6 minutes as % of initial value
mice of the Swiss strain = assay: Acute toxicity study, single oral dose; assay type: in vivo; settings: single oral dose 50 mg/kg, 10 Swiss mice, 14 days observation
Source text: The acute toxicity of the product from Example 1A was roughly evaluated by orally administering a single dose of substance to a group of 10 mice of the Swiss strain.
Death incidence and appearance of toxic symptoms were observed during a period of 14 days after the compound administration.

Row | Compound | ANTIARTHRITIC ACTIVITY (%) ([1]; 5 mg/kg i.p.) | ANTIARTHRITIC ACTIVITY (%) ([1]; 10 mg/kg i.p.) | GASTRIC TOLERABILITY (Male Sprague-Dawley rats; 5 mg/kg i.p.) | GASTRIC TOLERABILITY (Male Sprague-Dawley rats; 10 mg/kg i.p.) | NITROXYSYNTHETASE ACTIVITY (nitroxysynthetase) | Calcium Δ% [2] | DRY TISSUE WEIGHT Δ% [2] | BLOOD PRESSURE [3] | HEART RATE (%) [3] | SPLEEN weight (Male Wistar rats) [mg] | THYMUS weight (Male Wistar rats) [mg] | 133Xe clearance (%) (Male Wistar rats) | Acute toxicity (death incidence and toxic symptoms) (mice of the Swiss strain)
1 | C[C@]12CCC(=O)C=C1CC[C@@H]1[C@@H]2[C@@H](O)C[C@@]2(C)[C@H]1CC[C@]2(O)C(=O)CO [HYDROCORTISONE, hydrocortisone, reference compound] | 40 | 55 | 2.0 arbitrary values | 3.5 arbitrary values | 55* per cent | 70° % | 95° % | 115* per-cent | 89* % | 642 ± 32 | 185 ± 17 | 33% | –
2 | C[C@]12CCC(=O)C=C1CC[C@@H]1[C@@H]2[C@@H](O)C[C@@]2(C)[C@H]1CC[C@]2(O)C(=O)COC(=O)CCCO[N+](=O)[O-] [HCN, Hydrocortisone 4-Nitroxybutanoate] | 45 | 62 | 0.5* arbitrary values | 1.2* arbitrary values | 62* per cent | 287% | 149% | 103 per-cent | 98% | 673 ± 38 | 297 ± 31 | 22* % | no sign of apparent toxicity
